The text below walks through data of paper PMC11275179, “Superior Anticancer and Antifungal Activities of New Sulfanyl-Substituted Niclosamide Derivatives” (Biomedicines, 2024).

One test relates to SK-GT-4 EAC cells. Put plainly: MTT proliferation assay, SK-GT-4 cells. The format is cell-based. Conditions: SKGT4, 72 h, read-out: Antiproliferative activity IC50, SK-GT-4. The method, then:
(§1) The FLO-1, SK-GT-4, and THP-1 cell lines were a gift from Dr. Shrikant Anant’s laboratory. Cells were grown in 10% fetal bovine serum (Fisher Scientific#FB12999102, Pittsburgh, PA, USA) and 1% antibiotic/antimycotic agent (Corning, Tewksbury, MA, USA) in RPMI 1640 media mixed with […] HEPES, L-glutamine (Corning, MA, USA). The cell lines were grown in a 5% CO2 incubator at 37 °C and used below 15 passages for the experiments.
(§2) The proliferation assay used a 3-(4,5-dimethylthiazol-2-yl)-2,5-diphenyltetrazolium bromide (MTT) assay. Briefly, 5000 FLO-1 and SK-GT-4 cells were counted and seeded in each well in 96-well plates. Post 24 h of incubation, EAC cells were treated with multiple concentrations (0–10 μM) of niclosamide (Cayman chemical#10649, Ann Arbor, MI, USA) and its analogs. At respective time points, 10 μL of stock MTT reagent (Millipore Sigma, Bedford, MA, USA) (3 mg/mL) was added to each well and incubated for 1–2 h under the dark at 37 °C. After incubation, the purple formazan crystals were dissolved in equal volumes of DMSO, and the absorbance of the resulting clear solutions was recorded at 570 nm using a microplate reader. A CCK-8 (Abcam, Cat no. ab228554, Burlingame, CA, USA) assay was used for the THP-1 cells. Briefly, 5000 cells were plated in every well of a 96-well plate. After 24 h of plating, THP-1 cells were treated with niclosamide and compound 3a. After the respective time point, an equal amount of CCK-8 reagent was pipetted to the wells and incubated for one hour in an incubator, and finally, the absorbance was recorded at 450 nm. The percent change in the proliferation was calculated by comparing the cell viability of the treated groups to the untreated control cells.

The subject of another test is FLO-1 EAC cells. In words: MTT proliferation assay, FLO-1 cells. The class given is cell-based. Conditions: FLO-1, 72 h, read-out: Antiproliferative activity IC50, FLO-1. The method, then: as §1, §2
Test [1] relates to SK-GT-4 and FLO-1 EAC cells. In words: Colony formation assay. The class given is cell-based. Conditions: 1.5 µM (SK-GT-4) and 0.8 µM (FLO-1); both EAC cell lines. The protocol: In total, 500 SK-GT-4 and FLO-1 cells were seeded in each well of 6-well plates before 24 h treatment of niclosamide analog 3a IC50 concentration and an equivalent dose of niclosamide. The media was changed after 72 h with drug-free media to remove drug exposure and allow them to grow and form colonies for 10–12 days. At the end of the experiment, the colonies were washed using PBS three times, fixed with 10% formalin solution (Fisher Scientific#23-305510, Pittsburgh, PA, USA), and stained using a 1% crystal violet (Sigma-Aldrich#C6158, St. Louis, MO, USA) solution in 10% ethanol for 15 min. The colonies were then washed with water, dried at room temperature, counted, and imaged. The number of colonies in the treated cells was compared with untreated cells.

The next test has as its system SK-GT-4 cells. Put plainly: Spheroid formation assay. The format is cell-based. As to conditions: 1.5 µM, SK-GT-4, 7 days. The protocol:
In the ultra-low attachment plates (Corning, Lowell, MA, USA), 500 SK-GT-4 cells were seeded in each well with the spheroid media [DMEM medium supplemented with EGF (20 ng/mL), FGF (20 ng/mL), heparin (4 µg/mL), B27 (10 mL in 500 mL of 50×) (Invitrogen, Carlsbad, CA, USA), and antibiotic pen/strep (1%)]. After 24 h, spheroids were treated with 3a (IC50 dose) and an equivalent dose of niclosamide. Spheroids were counted after 7 days, and images were taken.

A further test deals with STAT3. In words: Western blot, p-STAT3 and STAT3 in EAC cells. The class given is cell-based. Conditions: SK-GT-4 1.5 µM and FLO-1 0.8 µM, 72 h. The protocol:
(§3) A total of 500,000 FLO-1 and SK-GT-4 cells were seeded in 10 cm^2 dishes. After 24 h, cells were incubated with a vehicle, niclosamide analog 3a (IC50 concentration), and niclosamide (equivalent dose of 3a IC50 concentration). Then, 72 h post-treatment with the compounds, the media were removed to eliminate the dead/floating cells and washed with PBS. The cells were then scraped using a cell scraper in the lysis buffer containing a protease/phosphatase inhibitor cocktail (Thermo Scientific# A32959, Rockford, IL, USA). Further cells were lysed and sonicated using a probe sonicator (Fisher Scientific Model no FB120). The resulting lysates were centrifuged at 6500 rpm and 4 °C for 10 min. […] (Thermo Scientific, Rockford, IL, USA) method was used to estimate total protein levels in the prepared cell lysates, which were diluted with lysis buffer mixed with 2× Laemmli buffer (Biorad#1610737, Hercules, CA, USA) and boiled for 5 min at […]. Equal volumes of protein (50 μg) were used on the SDS-PAGE for separation using gel electrophoresis. […]

In the next test the test system is β-catenin. Put plainly: Western blot, active non-phospho-β-catenin in EAC cells. The format is cell-based. As to conditions: SK-GT-4 1.5 µM and FLO-1 0.8 µM, 72 h. The protocol:
as §3

Test [2] deals with M. mycetomatis MM55 strain. Put plainly: In vitro susceptibility testing (MTS), MM55 strain. The format is cell-based, Madurella mycetomatis. As to conditions: Madurella mycetomatis, MM55STRAIN. The method, then: The antifungal activity of the compounds was tested against a geographically and genetically diverse set of M. mycetomatis isolates. These included the MM55 strain from Sudan, strains I1, I3, and […] from India, strain P1 from Mali, strain SO1 from Somalia, strain Peru72012 from Peru, and strain CBS247.48 whose country of origin was unknown. All isolates were originally obtained from patients and identified and maintained in the Erasmus Medical Centre, Rotterdam, The Netherlands. In vitro susceptibility testing was performed as reported previously. The only difference was that tetrazolium compound 3-(4,5-dimethylthiazol-2-yl)-5-(3-carboxymethoxyphenyl)-2-(4-sulfophenyl)-2H-tetrazolium salt (MTS) was used as a viability dye in endpoint reading instead of 2,3-bis-(2-methoxy-4-nitro-5-sulfophenyl)-2H-tetrazolium-5-carboxanilide salt (XTT).

For test [3], the system named is M. mycetomatis SO1 isolate. More on the design: method as in PMID 34209118. As to conditions: read-out: IC50 against the Somalian SO1 isolate; cited from earlier work.

SMILES strings stand for the structures.

`O=C(Nc1ccc([N+](=O)[O-])cc1Cl)c1cc(Cl)ccc1O` [Niclosamide]: the IC50 in the test with SK-GT-4 EAC cells is 1770 ± 770 nM; with FLO-1 EAC cells, 1050 ± 280 nM; in test [2] (read-out: Antifungal activity IC50), 15000 ± 1600 nM; in test [3] it was 2380 nM. Also, the “Inhibition of colony formation” value in test [1] is recorded as “slightly less efficient than 3a”. Also, the “Inhibition of spheroid formation” value with SK-GT-4 cells is reported as “inhibit spheroid formation”. For the same compound, the “Activating phosphorylation of STAT3 at TYR705 (Western blot)” value with STAT3 is listed as “inhibited activating STAT3 phosphorylation but not as strongly as 3a”. The “Active (non-phosphorylated) β-catenin (Western blot)” value with β-catenin was “suppressed”. Moreover, in test [2] (read-out: Antifungal activity IC90), the IC90 is 23800 ± 100 nM.
